Legend:
[1] = molecular target: T1, Melanocortin receptor 4 (Homo sapiens, UniProt P32245); assay: biochemical; type: cell-based, HEK293
Description: Displacement of [125I]NDP-MSH from human MC4R expressed in HEK293 cells

[2] = molecular target: T1, Melanocortin receptor 4; assay: cAMP stimulation in HEK293 cells transfected with human MC4R; type: functional, cell-based

T1 sequence (P32245 whole entry): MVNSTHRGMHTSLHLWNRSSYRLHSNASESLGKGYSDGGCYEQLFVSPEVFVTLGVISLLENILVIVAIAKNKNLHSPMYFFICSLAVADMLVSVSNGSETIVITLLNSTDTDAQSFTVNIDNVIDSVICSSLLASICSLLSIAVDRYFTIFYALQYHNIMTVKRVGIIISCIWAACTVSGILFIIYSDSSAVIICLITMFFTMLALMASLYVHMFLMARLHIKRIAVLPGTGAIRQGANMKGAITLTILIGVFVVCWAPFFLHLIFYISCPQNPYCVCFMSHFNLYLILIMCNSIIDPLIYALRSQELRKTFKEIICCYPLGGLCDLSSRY

Row | Structure (SMILES) | Ki [1] [nM] | EC50 [2] [nM] | Emax [2] [%]
1 | O=C(Cc1ccccc1)NCC1(N2CCN(C(=O)[C@@H](Cc3ccc(Cl)cc3)NC(=O)Cc3cccs3)CC2)CCCCC1 | 80 | – | –
2 | O=C(Cc1ccccc1)NCC1(N2CCN(C(=O)[C@@H](Cc3ccc(Cl)cc3)NC(=O)C3CCCC3)CC2)CCCCC1 | 230 | – | –
3 | CC(C)COC(=O)N[C@H](Cc1ccc(Cl)cc1)C(=O)N1CCN(C2(CNC(=O)Cc3ccccc3)CCCCC2)CC1 | 280 | – | –
4 | NC1(C(=O)N[C@H](Cc2ccc(Cl)cc2)C(=O)N2CCN(C3(CNC(=O)Cc4ccccc4)CCCCC3)CC2)Cc2ccccc2C1 | 140 | 280 | 49
5 | CCCC(=O)N[C@H](Cc1ccc(Cl)cc1)C(=O)N1CCN(C2(CNC(=O)Cc3ccccc3)CCCCC2)CC1 | 210 | – | –
6 | O=C(Cc1ccccc1)NCC1(N2CCN(C(=O)[C@@H](Cc3ccc(Cl)cc3)NC(=O)CC3Cc4ccccc4CN3)CC2)CCCCC1 (stereo partly specified) | 16 | 37 | 96
7 | O=C(Cc1ccccc1)NCC1(N2CCN(C(=O)[C@@H](Cc3ccc(Cl)cc3)NC(=O)c3cccnc3)CC2)CCCCC1 | 60 | – | –
8 | NC1(C(=O)N[C@H](Cc2ccc(Cl)cc2)C(=O)N2CCN(C3(CNC(=O)Cc4ccccc4)CCCCC3)CC2)CCc2ccccc21 (stereo partly specified) | 260 | 810 | 51
9 | CC(C)(C)CC(=O)N[C@H](Cc1ccc(Cl)cc1)C(=O)N1CCN(C2(CNC(=O)Cc3ccccc3)CCCCC2)CC1 | 750 | 570 | 43
10 | CC(C)CC(=O)N[C@H](Cc1ccc(Cl)cc1)C(=O)N1CCN(C2(CNC(=O)Cc3ccccc3)CCCCC2)CC1 | 270 | – | –
11 | O=C(Cc1ccccc1)NCC1(N2CCN(C(=O)[C@@H](Cc3ccc(Cl)cc3)NC(=O)[C@H]3Cc4ccccc4CN3)CC2)CCCCC1 | 16 | 33 | 96
12 | O=C(Cc1ccccc1)NCC1(N2CCN(C(=O)[C@@H](Cc3ccc(Cl)cc3)NC(=O)[C@@H]3Cc4ccccc4CN3)CC2)CCCCC1 | 11 | 46 | 76
13 | O=C(Cc1ccccc1)NCC1(N2CCN(C(=O)[C@@H](Cc3ccc(Cl)cc3)NC(=O)c3ccc(F)cc3)CC2)CCCCC1 | 97 | – | –
14 | O=C(Cc1ccccc1)NCC1(N2CCN(C(=O)[C@@H](Cc3ccc(Cl)cc3)NC(=O)C3NCc4ccccc43)CC2)CCCCC1 (stereo partly specified) | 99 | 440 | 43
15 | CCC(CC)C(=O)N[C@H](Cc1ccc(Cl)cc1)C(=O)N1CCN(C2(CNC(=O)Cc3ccccc3)CCCCC2)CC1 | 1000 | – | –
16 | O=C(Cc1ccccc1)NCC1(N2CCN(C(=O)[C@@H](Cc3ccc(Cl)cc3)NC(=O)c3cnc4ccccc4c3)CC2)CCCCC1 | 61 | – | –
17 | O=C(Cc1ccccc1)NCC1(N2CCN(C(=O)[C@@H](Cc3ccc(Cl)cc3)NC(=O)C3CC3)CC2)CCCCC1 | 130 | – | –

Row | Structure (SMILES) | Ki [1] [nM] | EC50 [2] [nM] | Emax [2] [%]
18 | CCC(=O)N[C@H](Cc1ccc(Cl)cc1)C(=O)N1CCN(C2(CNC(=O)Cc3ccccc3)CCCCC2)CC1 | 160 | – | –
19 | O=C(Cc1ccccc1)NCC1(N2CCN(C(=O)[C@@H](Cc3ccc(Cl)cc3)NC(=O)Cc3ccccc3F)CC2)CCCCC1 | 180 | – | –
20 | CCCCC(=O)N[C@H](Cc1ccc(Cl)cc1)C(=O)N1CCN(C2(CNC(=O)Cc3ccccc3)CCCCC2)CC1 | 150 | – | –
21 | CC(C)C(=O)N[C@H](Cc1ccc(Cl)cc1)C(=O)N1CCN(C2(CNC(=O)Cc3ccccc3)CCCCC2)CC1 | 300 | – | –
22 | O=C(Cc1ccccc1)NCC1(N2CCN(C(=O)[C@@H](Cc3ccc(Cl)cc3)NC(=O)C3CCC3)CC2)CCCCC1 | 140 | – | –
23 | NC(C(=O)N[C@H](Cc1ccc(Cl)cc1)C(=O)N1CCN(C2(CNC(=O)Cc3ccccc3)CCCCC2)CC1)c1ccccc1 (stereo partly specified) | 79 | 530 | 26
24 | NC(CC(=O)N[C@H](Cc1ccc(Cl)cc1)C(=O)N1CCN(C2(CNC(=O)Cc3ccccc3)CCCCC2)CC1)c1ccccc1 (stereo partly specified) | 42 | 270 | 61
25 | NC(Cc1ccncc1)C(=O)N[C@H](Cc1ccc(Cl)cc1)C(=O)N1CCN(C2(CNC(=O)Cc3ccccc3)CCCCC2)CC1 (stereo partly specified) | 120 | 590 | 54
26 | NC(Cc1ccccc1)C(=O)N[C@H](Cc1ccc(Cl)cc1)C(=O)N1CCN(C2(CNC(=O)Cc3ccccc3)CCCCC2)CC1 (stereo partly specified) | 130 | 420 | 62
27 | O=C(Cc1ccccc1)NCC1(N2CCN(C(=O)[C@@H](Cc3ccc(Cl)cc3)NC(=O)c3ccco3)CC2)CCCCC1 | 100 | – | –
28 | O=C(Cc1ccccc1)NCC1(N2CCN(C(=O)[C@@H](Cc3ccc(Cl)cc3)NC(=O)C3Cc4ccccc4N3)CC2)CCCCC1 (stereo partly specified) | 210 | 360 | 22
29 | CN(C)CC(=O)N[C@H](Cc1ccc(Cl)cc1)C(=O)N1CCN(C2(CNC(=O)Cc3ccccc3)CCCCC2)CC1 | 100 | 300 | 63
30 | COCC(=O)N[C@H](Cc1ccc(Cl)cc1)C(=O)N1CCN(C2(CNC(=O)Cc3ccccc3)CCCCC2)CC1 | 170 | – | –
31 | CC(=O)N[C@H](Cc1ccc(Cl)cc1)C(=O)N1CCN(C2(CNC(=O)Cc3ccccc3)CCCCC2)CC1 | 110 | – | –
32 | O=C(Cc1ccccc1)NCC1(N2CCN(C(=O)[C@@H](Cc3ccc(Cl)cc3)NC(=O)c3ccccc3)CC2)CCCCC1 | 84 | – | –
33 | NC1(C(=O)N[C@H](Cc2ccc(Cl)cc2)C(=O)N2CCN(C3(CNC(=O)Cc4ccccc4)CCCCC3)CC2)CCc2ccccc2C1 (stereo partly specified) | 82 | 160 | 87

Reference: ChEMBL document CHEMBL1141939, “Structure-activity relationship studies on a series of cyclohexylpiperazines bearing a phanylacetamide as ligands of the human melanocortin-4 receptor” (Bioorg Med Chem Lett, 2005)
